Some test systems named below: ACHN; BT-549; CAKI-1; COLO 205; DU-145; EKVX; HCT-15; HOP-92; Hs-578T; LOX IMVI; MCF7; MOLT-4; NCI-H226; PC-3; SF-539; SK-MEL-5; SNB-19; SNB-75; UACC-62.
Holding throughout (experiment): NCI-60 cell line screen, 48 h

This note sets out measurements from ChEMBL document CHEMBL1201862, “PubChem BioAssay data set” (2004).

Each structure is given as a SMILES string.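 Results reflect a 48-hour exposure of cells in 96-well plates to compound at five concentrations. Abbreviation: GI50, concentration required for 50% inhibition of growth.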 The source made the active and inactive calls. Cut-off read from the data, not from the text of the source: active = GI50 up to about 1.1 µM and inactive = higher. Bounds are passed on as bounds.

Take `C[N+](C)(C)C(C1=CCCC1=O)c1ccccc1` (configuration not stated): the GI50 was 25.4 µM (inactive) with ACHN; 37.2 µM (inactive) in the experiment with BT-549; 24.5 µM (inactive) with CAKI-1; > 100 µM (inactive) in the experiment with COLO 205; 57.5 µM (inactive) in the experiment on DU-145; > 100 µM (inactive) with EKVX. Besides, the GI50 in the experiment with HCT-15 was 20.2 µM; in the experiment on HOP-92, 26.4 µM (inactive); in the experiment with Hs-578T, 33.4 µM (inactive); in the experiment with LOX IMVI, 18.7 µM (inactive); with MCF7, 21.8 µM (inactive); in the experiment on MOLT-4, 24.1 µM (inactive). The GI50 with NCI-H226 was 36.6 µM (inactive); in the experiment on PC-3 it was 35.5 µM (inactive); in the experiment with SF-539, 54.5 µM (inactive); in the experiment with SK-MEL-5 it was > 100 µM (inactive); with SNB-19, > 100 µM (inactive); with SNB-75, 52.8 µM (inactive). Also, the GI50 with UACC-62 was 18.3 µM (inactive).

For `Cc1c(NC(=S)Nc2ccc([N+](=O)[O-])cc2)c(=O)n(-c2ccccc2)n1C`, the GI50 in the experiment with ACHN, with BT-549, in the experiment on CAKI-1, in the experiment with COLO 205, in the experiment on DU-145 and in the experiment on EKVX was > 100 µM (inactive) in each case. For the same molecule, the GI50 in the experiment on HCT-15 was > 100 µM; in the experiment on HOP-92, > 100 µM (inactive); in the experiment with Hs-578T, > 100 µM (inactive); with LOX IMVI, > 100 µM (inactive); with MCF7, > 100 µM (inactive); in the experiment on MOLT-4, 10.9 µM (inactive). The GI50 with NCI-H226, in the experiment on PC-3, in the experiment with SF-539, in the experiment on SK-MEL-5, in the experiment on SNB-19 and in the experiment on SNB-75 was > 100 µM (inactive) in each case. In the experiment with UACC-62, the GI50 is > 100 µM (inactive).

Take `O=C1N=C2SC=C(NC(=S)Nc3ccccc3)N2NC12c1ccccc1-c1ccccc12`: the GI50 is 9.4 µM (inactive) in the experiment on ACHN; > 10 µM (inactive) in the experiment with BT-549; > 10 µM (inactive) with CAKI-1; > 10 µM (inactive) in the experiment on COLO 205; > 10 µM (inactive) in the experiment on DU-145; 9.25 µM (inactive) in the experiment on EKVX. In addition, the GI50 is > 10 µM in the experiment with HCT-15; > 10 µM (inactive) in the experiment with HOP-92; > 10 µM (inactive) with Hs-578T; > 10 µM (inactive) in the experiment on LOX IMVI; > 10 µM (inactive) in the experiment on MCF7; > 10 µM (inactive) in the experiment with MOLT-4. For the same molecule, the GI50 with NCI-H226, in the experiment on PC-3, in the experiment with SF-539, with SK-MEL-5, in the experiment with SNB-19 and in the experiment with SNB-75 was > 10 µM (inactive) in each case. Also, the GI50 in the experiment on UACC-62 was > 10 µM (inactive).

With `CCOc1cc(NC(C)=O)ccc1C(=O)NN1C(=O)CSC1c1ccccc1` (configuration not stated), the GI50 is > 100 µM (inactive) in the experiment with ACHN; 34.9 µM (inactive) in the experiment with BT-549; > 100 µM (inactive) in the experiment with CAKI-1; 75 µM (inactive) in the experiment with COLO 205; > 100 µM (inactive) with DU-145; 91 µM (inactive) in the experiment with EKVX. Moreover, the GI50 in the experiment with HCT-15 is 60.3 µM; in the experiment with HOP-92, 42.5 µM (inactive); in the experiment with Hs-578T it was > 100 µM (inactive); in the experiment with LOX IMVI it was > 100 µM (inactive); in the experiment on MCF7, 78.5 µM (inactive); in the experiment with MOLT-4, < 0.01 µM (active). Further, the GI50 is > 100 µM (inactive) with NCI-H226; 78.7 µM (inactive) in the experiment with PC-3; > 100 µM (inactive) with SF-539; 34.4 µM (inactive) in the experiment with SK-MEL-5; > 100 µM (inactive) with SNB-19; 95.3 µM (inactive) in the experiment with SNB-75. Besides, the GI50 in the experiment with UACC-62 was 52 µM (inactive).

For `O=C1/C(=C/c2ccc(O)cc2)Oc2ccccc21`, the GI50 in the experiment on ACHN, in the experiment with BT-549, in the experiment on CAKI-1, in the experiment with COLO 205, in the experiment with DU-145 and in the experiment on EKVX was > 100 µM (inactive) throughout. Besides, the GI50 is > 100 µM in the experiment with HCT-15; > 100 µM (inactive) in the experiment on HOP-92; > 100 µM (inactive) in the experiment with Hs-578T; > 100 µM (inactive) in the experiment with LOX IMVI; > 100 µM (inactive) with MCF7; 44.9 µM (inactive) in the experiment with MOLT-4. For the same molecule, the GI50 is > 100 µM (inactive) with NCI-H226; > 100 µM (inactive) with PC-3; > 100 µM (inactive) with SF-539; > 100 µM (inactive) with SK-MEL-5; > 100 µM (inactive) in the experiment with SNB-19; 60.1 µM (inactive) in the experiment on SNB-75. In addition, the GI50 with UACC-62 was > 100 µM (inactive).

On to `O=C1c2cc([N+](=O)[O-])ccc2NC2C(O)c3ccccc3N12` (configuration not stated), for which the GI50 with ACHN is 24.7 µM (inactive); in the experiment with BT-549, 22.8 µM (inactive); in the experiment with CAKI-1, 21.6 µM (inactive); in the experiment with COLO 205, 61.8 µM (inactive); with DU-145 it was 9.55 µM (inactive); in the experiment on EKVX, 0.619 µM (active). Further, the GI50 with HCT-15 is 29.3 µM; with HOP-92 it was 23.9 µM (inactive); in the experiment with Hs-578T it was 0.706 µM (active); in the experiment with LOX IMVI, 43.8 µM (inactive); in the experiment with MCF7, 17.3 µM (inactive); with MOLT-4, 19.7 µM (inactive). The GI50 in the experiment with NCI-H226 is 29.2 µM (inactive); in the experiment on PC-3, 53 µM (inactive); in the experiment with SF-539, 29.3 µM (inactive); with SK-MEL-5, 38 µM (inactive); in the experiment on SNB-19, 29 µM (inactive); in the experiment on SNB-75, 20.2 µM (inactive). In addition, the GI50 in the experiment with UACC-62 is 3.45 µM (inactive).

As to `C=C1CCOC2(C(O)C(C)(O)CO)NC(=O)C1(O)NC2=O` (configuration not stated), the GI50 with ACHN, with BT-549, in the experiment on CAKI-1, with COLO 205, in the experiment on DU-145 and in the experiment with EKVX was > 100 µM (inactive) each time. Further, the GI50 in the experiment on HCT-15 is > 100 µM; with HOP-92, > 100 µM (inactive); in the experiment on Hs-578T, > 100 µM (inactive); with LOX IMVI, > 100 µM (inactive); with MCF7, > 100 µM (inactive); with MOLT-4, > 100 µM (inactive). Also, the GI50 in the experiment on NCI-H226, with PC-3, in the experiment with SF-539, in the experiment on SK-MEL-5, in the experiment on SNB-19 and in the experiment on SNB-75 was > 100 µM (inactive) in each case. Also, the GI50 with UACC-62 is > 100 µM (inactive).

Regarding `C[N+](C)(C)/C=N\c1cccc2nsnc12`, the GI50 in the experiment on ACHN, in the experiment with BT-549, in the experiment on CAKI-1, in the experiment with COLO 205, in the experiment with DU-145 and with EKVX was > 100 µM (inactive) each time. For the same molecule, the GI50 in the experiment on HCT-15 is > 100 µM; in the experiment with HOP-92, > 100 µM (inactive); with Hs-578T, > 100 µM (inactive); in the experiment with LOX IMVI, > 100 µM (inactive); in the experiment with MCF7, > 100 µM (inactive); in the experiment with MOLT-4, > 100 µM (inactive). Besides, the GI50 in the experiment with NCI-H226, with PC-3, with SF-539, with SK-MEL-5, in the experiment with SNB-19 and in the experiment with SNB-75 was > 100 µM (inactive) in each case. The GI50 with UACC-62 is > 100 µM (inactive).
